Like-named read-outs stand apart in the source and are kept apart here.

Data set [1] deals with cisplatin-resistant ovarian cancer cells (A2780Cis). Briefly: Dose dependent study, trypan blue assay, A2780Cis. It counts as cell-based. As to conditions: at 0.39 μM, 72 hours treatment.
Data set [2] relates to HeLa xenografts. Briefly: In vivo anti-tumour activity in mice xenograft model. Also on record: species or system BALB/c Nude mice. As to conditions: 1 mg/kg intraperitoneal, 42 days, nude mice bearing HeLa xenografts. As to the method:
The use of metal complexes or gold compounds in animal xenograft models has been previously described elsewhere for cervical cancer models or other tumour types. The efficacy of the newly synthesised novel gold compound in reducing tumour growth in cervical cancer models was tested as follows. […] Five-week-old female BALB/c Nude mice were used. HeLa tumour cells (5×10^6) resuspended in RPMI medium injected subcutaneously tumour cells in 100 μL of culture media using a 29-gauge insulin syringe into both ventral flanks, anterior to the hind leg. The mice were monitored twice daily for 48 hrs to determine if any unexpected adverse effects are observed. Tumours were allowed to establish to approximately 50 mm^3 (as determined using electronic callipers) and the mice were then randomly separated into three groups of 5.
From this stock solution, the final working concentrations for mice injections were prepared in PBS (Phosphate buffered saline, pH 7.4) with DMSO concentration not exceeding 3.6%.
Tumour volumes were measured 8 times during the 42-day period. All mice were culled after 42 days and the tumours were collected and weighed. All the animal experiments were performed in Biological Research Facility, Melbourne University according to the animal ethics number 1814422.

For data set [3], the system named is HT-29 colon cancer cells. Nature of the data set: Trypan blue assay, HT-29. It counts as cell-based. The procedure:
(§1) A Trypan blue assay was conducted to determine the cytotoxicity of certain compounds of the invention towards cisplatin-sensitive (A2780) and -resistant (A2780Cis) ovarian, prostate (PC3) and colon (HT-29) cancer cells.
(§2) In order to determine the toxicity of the compounds, 5×10^4 cells per well were seeded into 24 well plates and allowed to grow for 24 hours. The cells were then treated with increasing concentrations of the compounds for 72 hours. […] The gold complexes were dissolved in DMSO immediately prior to the experiments (5 mM stock solutions). 0.25% DMSO in complete medium served as vehicle control. All treatments were performed using molar concentrations and each well received 1 mL of treatment in cell culture media (RPMI) containing 10% FBS and 1% penicillin and streptomycin. After 72 hours of treatment, the media was collected from each well in separate tubes in order to include dead cells in the cell count. Cells from the plate were removed using 200 μL of 0.25% Trypsin-EDTA for 3 minutes at 37° C. Trypsin was neutralised with the media originally removed from the cells and centrifuged at 1200 rpm for 5 minutes. The supernatant was discarded and the cells were resuspended in 100 μL of fresh complete media. From this, 20 μL of cell suspension was removed, mixed with an equal volume of Trypan Blue and the cells were counted using a haemocytometer.

For data set [4], the system named is A2780 ovarian cancer cells. Nature of the data set: Trypan blue assay, A2780. The data set is classed as cell-based. As to the method:
as §1, §2

Data set [5] concerns A2780Cis cisplatin resistant ovarian cancer cells. Nature of the data set: Trypan blue assay, A2780Cis. The data set is classed as cell-based. The procedure: as §1, §2
Data set [6] relates to HeLa (cervical) cancer cells. Nature of the data set: MTT assay (in vitro cytotoxicity), HeLa. The data set is classed as cell-based. As to conditions: ratio to cisplatin. The procedure:
(§3) For all the assays, unless otherwise mentioned, stock solutions of the metal compounds were freshly prepared in DMSO (10 mM) and 1% DMSO in complete medium was used as a control.
(§4) The MTT [3-(4,5-dimethylthiazol-2-yl)-2,5-diphenyltetrazolium bromide] assay is based on the conversion of a yellow coloured MTT solution to purple formazan crystals by the active mitochondrial dehydrogenases of viable cells. Thus, the intensity of the produced purple colour is proportional to the number of viable cells. The cells were seeded in 96 well plates depending on cellular doubling time and were treated with solutions of the metal compounds (100 μM, 10 μm, 1 μM, 0.1 μM, 0.01 μM) after overnight incubation. The cells were further incubated for 48 h and the medium containing the test compounds was removed before addition of 100 μL MTT solution (5 mg/mL) in serum-free medium. After 4 h incubation in the dark at 37° C., the excess MTT solution was removed from the wells and 100 μL of DMSO was added to each well to solubilise the formed formazan crystals. The absorbance of formazan solution from each well was recorded using a Spectramax micro titre plate reader at 570 and 630 nm. […] For all the assays, stock solutions of gold compounds were prepared in DMSO (10 mM) and the final treatment concentrations (100 μM-0.01 μM) were made in complete growth medium.

In data set [7] the test system is PC3 (prostate) cancer cells. Briefly: MTT assay (in vitro cytotoxicity), PC3. It counts as cell-based. The note with it: ratio to cisplatin. The procedure:
as §3, §4
(In general: Formazan colour is commonly taken as a measure of viable cells.)

Data set [8] can be described thus: MTT assay (in vitro cytotoxicity), HeK-293. It counts as cell-based. The note with it: human, HEK-293 (normal) embryonic kidney cells, 48 h incubation, mean ± SD of three experiments. As to the method:
as §3, §4

Data set [9] has as its system HT-1080 (bone, fibrosarcoma) cancer cells. Briefly: MTT assay (in vitro cytotoxicity), HT-1080. It counts as cell-based. The note with it: ratio to cisplatin. As to the method:
as §3, §4

The test system of data set [10] is PC3 prostate cancer cells. Nature of the data set: Trypan blue assay, PC3. The data set is classed as cell-based.

For the molecule `N.N.[Cl][Pt][Cl]` [Cisplatin], the “effect on cell viability” value in data set [1] is on record as “no significant effect”. The tumour volume inhibition in data set [2] (compared to solvent control) worked out at 29%. Besides, the IC50 is over 25000 nM in data set [3] (Trypan blue, 72 hours treatment, read-out: In vitro cytotoxicity IC50, HT-29); 1400 ± 130 nM in data set [4] (Trypan blue, 72 hours treatment, read-out: In vitro cytotoxicity IC50, A2780); over 25000 nM in [5] (Trypan blue, 72 hours treatment, read-out: In vitro cytotoxicity IC50, A2780Cis).

Turning to `S=P(c1ccccc1)(c1ccccc1)c1cccc[c]1[Au][PH]12CN3CN(CN(C3)C1)C2` [Compound 1, [Au(PTA){κC-2-C6H4P(S)Ph2}]], the “mouse death or body weight loss after treatment” value in [2] was “no mouse death or body weight loss”. The “higher cytotoxicity than cisplatin towards cervical cancer cells” value in data set [6] is recorded as “approximately 27 fold”. In addition, the “higher cytotoxicity than cisplatin against prostate cancer cells” value in data set [7] was 3.5 fold. Also, the midpoint of inhibition in [8], the IC50 at 48 h, lay at 380 ± 110 nM. For the same molecule, the “higher cytotoxicity than cisplatin against bone cancer cells” value in data set [9] worked out at 7.8 fold.

For `S=P(c1ccccc1)(c1ccccc1)c1cccc[c]1[Au][P+](c1ccccc1)(c1ccccc1)c1ccccc1` [Compound 2, [Au(PPh3){κC-2-C6H4P(S)Ph2}]], in data set [8], the half-inhibitory concentration (IC50) at 48 h was 5810 ± 350 nM.

As for `CC(=O)OC[C@H]1O[C@@H]([S-])[C@H](OC(C)=O)[C@@H](OC(C)=O)[C@@H]1OC(C)=O.CCP(CC)CC.[Au+]` [auranofin], the IC50 turned out to be 510 nM in [3], 80 ± 10 nM in [4], 440 ± 50 nM in [10] and 710 ± 60 nM in [5].

As for `COc1cc([C@@H]2c3cc4c(cc3[C@@H](O[C@@H]3O[C@@H]5CO[C@@H](C)O[C@H]5[C@H](O)[C@H]3O)[C@H]3COC(=O)[C@H]23)OCO4)cc(OC)c1O` [etoposide], the “effect on cell viability” value in data set [1] is on record as “no significant effect”.

The term IC50 denotes the concentration at which inhibition is half-maximal.

Values taken from patent publication US12152047B2, “Anti-cancer gold compounds” (Royal Melbourne Institute of Technology, priority 2019, dated 2024).
